Laboratory results reported in patent US20240082235A1, “METHOD FOR TREATING OR INHIBITING CYTOMEGALOVIRUS INFECTION USING SMALL MOLECULES TARGETING PROTEIN PHOSPHATASE 1” (HOWARD UNIVERSITY, priority 2020, published 2024).

Experiments:
[1] = target: PP1 with peptides containing an RVxF sequence (Homo sapiens, UniProt P62136); conditions: in vitro; Ammosova et al. 2012, 2014; cited from earlier work
PP1 = PP1 (Homo sapiens, UniProt P62136); conditions: SPR; Lin et al. 2017; read-out: KD of binding to PP1; cited from earlier work
PP1, sequence (P62136 whole entry): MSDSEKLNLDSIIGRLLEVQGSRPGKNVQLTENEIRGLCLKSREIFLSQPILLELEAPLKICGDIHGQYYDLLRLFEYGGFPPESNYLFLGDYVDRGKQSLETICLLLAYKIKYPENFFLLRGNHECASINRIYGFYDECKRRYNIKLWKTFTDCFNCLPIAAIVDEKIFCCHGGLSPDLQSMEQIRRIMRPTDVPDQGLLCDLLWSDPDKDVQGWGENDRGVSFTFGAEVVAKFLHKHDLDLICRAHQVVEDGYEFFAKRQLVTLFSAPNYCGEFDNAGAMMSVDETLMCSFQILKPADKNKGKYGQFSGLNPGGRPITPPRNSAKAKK

PP1-cdNIPP1 interaction = target: T1, PP1-cdNIPP1 interaction (Homo sapiens, UniProt P62136); test: Split NanoBit protein:protein interaction assay, WT PP1 with WT cdNIPP1; type: binding; conditions: FIG. 4B
T1 construct: NanoBiT large bit (LgBiT)
T1 sequence (P62136 whole entry): as above

CMV = test: Plaque assay of human foreskin fibroblasts infected with CMV; type: cell-based, human cytomegalovirus; conditions: percentage compared to untreated control, FIG. 5A
[2] = tested on: CMV IE1, IE2 and UL32 mRNA; test: Viral mRNA expression by RT-qPCR in infected human foreskin fibroblasts; type: cell-based, human cytomegalovirus; conditions: fold-change compared to infected cells treated with vehicle only, FIG. 5C
[3] = tested on: CMV immediate early proteins; test: Expression of CMV immediate early proteins in infected cells; type: cell-based, human cytomegalovirus; conditions: FIG. 5B
[4] = target: T2, PP1-cdNIPP1 RATA interaction (Homo sapiens, UniProt P62136); test: Split NanoBit protein:protein interaction assay, WT PP1 with RVxF-mutant cdNIPP1; type: binding; conditions: FIG. 4B, cdNIPP1 with RVxF mutation
T2 construct: NanoBiT large bit (LgBiT)
T2 sequence (P62136 whole entry): as above

PP1 with peptides containing an RVxF sequence, sequence (P62136 whole entry): as above

CCNC(=O)NC(=O)C(C)OC(=O)c1c2c(nc3ccccc13)/C(=C/c1ccc(OC)c(OC)c1)CC2 (stereo not shown) [1E7-03]
Interaction of PP1 with peptides containing an RVxF sequence [1]: disrupted the interaction of PP1 with peptides containing an RVxF sequence | Kd (PP1): 6.2 µM | Effect on PP1-cdNIPP1 interaction (PP1-cdNIPP1 interaction): inhibited the PP1-cdNIPP1 interaction | Inhibition of CMV replication (CMV): concentration-dependent inhibition of CMV replication | Viral mRNA expression (IE1, IE2, UL32) [2]: no effect on viral transcription | Expression of CMV immediate early proteins [3]: reduced | Effect on PP1-cdNIPP1 RATA interaction [4]: did not have an effect
